The values that follow come from patent publication US5736522A, “Esculetin derivatives and method for manufacture thereof, use thereof, and pharmaceutical composition” (Kureha Chemical Industry Co., Ltd., priority 1993, dated 1998).

In one series the test system is GAG in the matrix. In words: Suppression of reduction in GAG in the matrix caused by stimulation of interleukin-1 or the like.
For series [1], the system named is Crj: CD-1 (ICR) male mice. In words: Acute toxicity of esculetin derivatives, mice. The note with it: mouse, in vivo. How it is done: (§1) The toxicity of the esculetin derivatives of the present invention was examined. Typical examples of the present derivatives were administered orally at a dose of 2000 mg/kg (body weight) to male mice and male rats which were then observed for seven days. No deaths and no remarkable toxicity were observed. The esculetin derivatives of the present invention are extremely safe compounds (see Example 27).
(§2) The acute toxicity of the present substance was examined using Crj: CD-1 (ICR) male mice (6 weeks old) and Wistar male rats (6 weeks old). 6-(β-2-acetoamide-2-deoxy-D-glucopyranosyloxy)-7-hydroxycoumarin [Ib-2] […] No deaths were observed. […] In the experiments, two animals were used for each group.

The test system of the next series is Wistar male rats. In words: Acute toxicity of esculetin derivatives, rats. The note with it: rat, in vivo. How it is done:
as §1, §2

Take `Cc1cc(=O)oc2cc(O)c(O)cc12` [4-methylesculetin]: the “suppression of the reduction in GAG in the matrix” value with GAG in the matrix is given as “strongly suppress the reduction in the GAG in the matrix”.

For `O=c1ccc2cc(O)c(O)cc2o1` [esculetin], in the series with GAG in the matrix, the “suppression of the reduction in GAG in the matrix” value is given as “strongly suppress the reduction in the GAG in the matrix”.

As for `CC(=O)N[C@H]1[C@H](Oc2cc3ccc(=O)oc3cc2O)O[C@H](CO)[C@@H](O)[C@@H]1O` [Ib-2], the deaths result (in series [1]; in the series with Wistar male rats) was “No deaths” each time.
